Literature values, collected in patent US7208615B2, “Triple mineral salts of (-)-hydroxycitric acid and processes for preparing the same” (Laila Impex, priority 2004, dated 2007).

Assays:
[1] = background art; forms lactone, liquid form unstable during storage
[2] = background art (US 5,783,603)

Row | stability of free acid form [1] | hygroscopicity [2] | Compound
1 | unstable |  | O=C(O)CC(O)(C(=O)O)C(O)C(=O)O (single isomer, unassigned; (-)) [(−)-hydroxycitric acid]
2 |  | hygroscopic | potassium salt of HCA
